Values quoted from earlier work, collected in US20120107430A1, “PRE-PROCEDURE MEAL REGIMEN” (priority 2009, published 2012).

Assays:
colon [1] = conditions: either diet (light breakfast then clear liquids, or normal breakfast, low residue lunch, then clear liquids); 200 patients
colon [2] = conditions: N=50 per arm; senna two doses 158 mg each, 8 hours apart; sodium phosphate 48 grams

Compound: O=P(O)(O)O [sodium phosphate]
- good to excellent preparation (colon [1]): 93-95%
- patients reporting good tolerance (colon [2]): 28 patients
- patients reporting poor tolerance (colon [2]): 12 patients
